Test results as given in US8450317B2, “CXCR3 receptor antagonists” (Boehringer Ingelheim International GmbH, priority 2009, dated 2013).
Read-outs that look alike come from different tables or passages of the source.

Molecular target: CXCR3 (Macaca fascicularis, UniProt A0A2K5UV19)
Assay: functional cellular assay measuring calcium flux in CXCR3 transfected cells (block of CXCR3/IP-10 interaction)
Type: cell-based, Cyno
Outline: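 Cyno-CHO cells stably expressing CXCR3 and G-alpha-16, loaded with Ca-4 dye in HBSS/10 mM HEPES pH 7.4 with 2 mM probenecid for 1 h at 37° C. Compound (final 10 microM) preincubated 15 min at room temperature, then IP-10 at EC80 added; calcium flux read at 480/540 nm.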

[1] = IP-10 induced intracellular calcium flux, Cyno-CHO cells stably expressing recombinant CXCR3 and G-alpha-16, IP-10 at EC80, read-out: IC50

Sequence of CXCR3 (A0A2K5UV19 entry or part of it): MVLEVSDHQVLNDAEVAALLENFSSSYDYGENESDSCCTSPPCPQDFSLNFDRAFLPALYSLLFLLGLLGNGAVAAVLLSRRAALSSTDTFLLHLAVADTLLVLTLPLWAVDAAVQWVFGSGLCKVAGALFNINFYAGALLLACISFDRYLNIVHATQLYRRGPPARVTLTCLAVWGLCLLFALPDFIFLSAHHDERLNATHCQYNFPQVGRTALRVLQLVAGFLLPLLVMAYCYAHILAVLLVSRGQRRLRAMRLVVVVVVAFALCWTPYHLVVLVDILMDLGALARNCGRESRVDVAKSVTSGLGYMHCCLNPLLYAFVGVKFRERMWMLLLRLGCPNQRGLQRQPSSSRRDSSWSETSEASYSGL

Row | IC50 [1] [nM] | SMILES | IC50 [nM]
1 | 9 | CS(=O)(=O)C1CCN(c2ncc(-c3cc(F)ccc3N3CCN(C(=O)Cn4ccc5cccnc54)CC3)cn2)CC1 [1-[4-(4-fluoro-2-{2-[4-(methylsulfonyl)piperidin-1-yl]pyrimidin-5-yl}phenyl)piperazin-1-yl]-2-(1H-pyrrolo[2,3-b]pyridin-1-yl)ethanone] | 
2 | 8 | CS(=O)(=O)C1CCN(c2ncc(-c3cc(F)ccc3N3CCN(C(=O)Cn4ccc5ccncc54)CC3)cn2)CC1 [1-[4-(4-fluoro-2-{2-[4-(methylsulfonyl)piperidin-1-yl]pyrimidin-5-yl}phenyl)piperazin-1-yl]-2-(1H-pyrrolo[2,3-c]pyridin-1-yl)ethanone] | 
3 | 10 | CS(=O)(=O)C1CCN(c2ncc(-c3cc(F)ccc3N3CCN(C(=O)Cn4cnc5cccnc54)CC3)cn2)CC1 [1-[4-(4-fluoro-2-{2-[4-(methylsulfonyl)piperidin-1-yl]pyrimidin-5-yl}phenyl)piperazin-1-yl]-2-(3H-imidazo[4,5-b]pyridin-3-yl)ethanone] | 
4 | 6 | Cc1cc(C)n(CC(=O)N2CCN(c3ccccc3-c3cnc(N4CCC(C(N)=O)CC4)nc3)CC2)n1 [1-[5-(2-{4-[2-(3,5-Dimethyl-pyrazol-1-yl)-acetyl]-piperazin-1-yl}-phenyl)-pyrimidin-2-yl]-piperidine-4-carboxylic acid amide] | 
5 | 9 | CNC(=O)C1CCN(c2ncc(-c3ccccc3N3CCN(C(=O)Cn4nc(C)cc4C)CC3)cn2)CC1 [1-[5-(2-{4-[2-(3,5-Dimethyl-pyrazol-1-yl)-acetyl]-piperazin-1-yl}-phenyl)-pyrimidin-2-yl]-piperidine-4-carboxylic acid methylamide] | 
6 | 34 | CC1CN(c2ccccc2-c2cnc(N3CCC(S(C)(=O)=O)CC3)nc2)CCN1C(=O)CN1CCCCC1=O (stereo not drawn) [1-{2-[2-methyl-4-(2-{2-[4-(methylsulfonyl)piperidin-1-yl]pyrimidin-5-yl}phenyl)piperazin-1-yl]-2-oxoethyl}piperidin-2-one] | 
7 | 9 | CC1CN(c2ccc(F)cc2-c2cnc(N3CCC(S(C)(=O)=O)CC3)nc2)CCN1C(=O)Cn1c(=O)[nH]c2ccccc21 (stereo not drawn) [1-{2-[4-(4-fluoro-2-{2-[4-(methylsulfonyl)piperidin-1-yl]pyrimidin-5-yl}phenyl)-2-methylpiperazin-1-yl]-2-oxoethyl}-1,3-dihydro-2H-benzimidazol-2-one] | 
8 | 14 | CC1CN(c2ccc(F)cc2-c2cnc(N3CCC(S(C)(=O)=O)CC3)nc2)CCN1C(=O)CN1CCCCC1=O (stereo not drawn) [1-{2-[4-(4-fluoro-2-{2-[4-(methylsulfonyl)piperidin-1-yl]pyrimidin-5-yl}phenyl)-2-methylpiperazin-1-yl]-2-oxoethyl}piperidin-2-one] | 
9 | 7 | CS(=O)(=O)C1CCN(c2ncc(-c3cc(F)ccc3N3CCN(C(=O)Cn4c(=O)[nH]c5ccccc54)CC3)cn2)CC1 [1-{2-[4-(4-fluoro-2-{2-[4-(methylsulfonyl)piperidin-1-yl]pyrimidin-5-yl}phenyl)piperazin-1-yl]-2-oxoethyl}-1,3-dihydro-2H-benzimidazol-2-one] | 
10 | 15 | CS(=O)(=O)C1CCN(c2ncc(-c3cc(F)ccc3N3CCN(C(=O)CN4CCCCC4=O)CC3)cn2)CC1 [1-{2-[4-(4-fluoro-2-{2-[4-(methylsulfonyl)piperidin-1-yl]pyrimidin-5-yl}phenyl)piperazin-1-yl]-2-oxoethyl}piperidin-2-one] | 
11 | 7 | CC1CN(c2ccc(C(F)(F)F)cc2-c2cnc(N3CCC(S(C)(=O)=O)CC3)nc2)CCN1C(=O)Cn1ccc2ccncc21 (stereo not drawn) [1-{2-methyl-4-[2-{2-[4-(methylsulfonyl)piperidin-1-yl]pyrimidin-5-yl}-4-(trifluoromethyl)phenyl]piperazin-1-yl}-2-(1H-pyrrolo[2,3-c]pyridin-1-yl)ethanone] | 
12 | 13 | CS(=O)(=O)c1ncc(-c2cc(C(F)(F)F)ccc2N2CCN(C(=O)Cn3ccc4cccnc43)CC2)cn1 [1-{4-[2-(2-Methanesulfonyl-pyrimidin-5-yl)-4-trifluoromethyl-phenyl]-piperazin-1-yl}-2-pyrrolo[2,3-b]pyridin-1-yl-ethanone] | 
13 | 115 | CS(=O)(=O)c1ncc(-c2ccccc2N2CCN(C(=O)Cn3ccc4cccnc43)CC2)cn1 [1-{4-[2-(2-Methanesulfonyl-pyrimidin-5-yl)-phenyl]-piperazin-1-yl}-2-pyrrolo[2,3-b]pyridin-1-yl-ethanone] | 
14 | 15 | O=C(Cn1ccc2cccnc21)N1CCN(c2ccc(C(F)(F)F)cc2-c2cnc(N3CCOCC3)nc2)CC1 [1-{4-[2-(2-Morpholin-4-yl-pyrimidin-5-yl)-4-trifluoromethyl-phenyl]-piperazin-1-yl}-2-pyrrolo[2,3-b]pyridin-1-yl-ethanone] | 

More lines, now with the values behind:

Row | SMILES | IC50 [1] [nM] | IC50 [nM]
15 | Cc1cc(C)n(CC(=O)N2CCN(c3ccccc3-c3cnc(N4CCCC(C(N)=O)C4)nc3)CC2)n1 (stereo not drawn) [1-[5-(2-{4-[2-(3,5-Dimethyl-pyrazol-1-yl)-acetyl]-piperazin-1-yl}-phenyl)-pyrimidin-2-yl]-piperidine-3-carboxylic acid amide] | 9 | 
16 | CC1CN(c2ccccc2-c2cnc(N3CCOCC3)nc2)CCN1C(=O)Cn1ccc2cccnc21 (stereo not drawn) [1-{2-Methyl-4-[2-(2-morpholin-4-yl-pyrimidin-5-yl)-phenyl]-piperazin-1-yl}-2-pyrrolo[2,3-b]pyridin-1-yl-ethanone] | 13 | 
17 | CC1CN(c2ccccc2-c2cnc(N3CCC(S(C)(=O)=O)CC3)nc2)CCN1C(=O)Cn1c(=O)[nH]c2ccccc21 (stereo not drawn) [1-{2-[2-methyl-4-(2-{2-[4-(methylsulfonyl)piperidin-1-yl]pyrimidin-5-yl}phenyl)piperazin-1-yl]-2-oxoethyl}-1,3-dihydro-2H-benzimidazol-2-one] | 11 | 
18 | CC1CN(C(=O)Cn2ccc3cccnc32)CCN1c1ccccc1-c1cnc(N2CCOCC2)nc1 (stereo not drawn) [1-{3-Methyl-4-[2-(2-morpholin-4-yl-pyrimidin-5-yl)-phenyl]-piperazin-1-yl}-2-pyrrolo[2,3-b]pyridin-1-yl-ethanone] | 11 | 
19 | COc1ncc(-c2ccccc2N2CC3CCC(C2)N3C(=O)Cn2ccc3cccnc32)cn1 [1-{3-[2-(2-Methoxy-pyrimidin-5-yl)-phenyl]-3,8-diaza-bicyclo[3.2.1]oct-8-yl}-2-pyrrolo[2,3-b]pyridin-1-yl-ethanone] |  | 7
20 | Cc1cc(C)n(CC(=O)N2CCN(c3ccccc3-c3cnc(N(C)C)nc3)CC2)n1 [1-{4-[2-(2-Dimethylamino-pyrimidin-5-yl)-phenyl]-piperazin-1-yl}-2-(3,5-dimethyl-pyrazol-1-yl)-ethanone] | 7 | 
21 | CN(C)c1ncc(-c2ccccc2N2CCN(C(=O)Cn3ccc4cccnc43)CC2)cn1 [1-{4-[2-(2-Dimethylamino-pyrimidin-5-yl)-phenyl]-piperazin-1-yl}-2-pyrrolo[2,3-b]pyridin-1-yl-ethanone] | 6 | 
22 | CCNc1ncc(-c2ccccc2N2CCN(C(=O)Cn3ccc4cccnc43)CC2)cn1 [1-{4-[2-(2-Ethylamino-pyrimidin-5-yl)-phenyl]-piperazin-1-yl}-2-pyrrolo[2,3-b]pyridin-1-yl-ethanone] | 9 | 
23 | COc1cc(-c2ccccc2N2CCN(C(=O)Cn3ccc4cccnc43)CC2)ccn1 [1-{4-[2-(2-Methoxy-pyridin-4-yl)-phenyl]-piperazin-1-yl}-2-pyrrolo[2,3-b]pyridin-1-yl-ethanone] | 24 | 
24 | COc1ncc(-c2cc(C(F)(F)F)ccc2N2CCN(C(=O)Cn3ccc4cccnc43)CC2)cn1 [1-{4-[2-(2-Methoxy-pyrimidin-5-yl)-4-trifluoromethyl-phenyl]-piperazin-1-yl}-2-pyrrolo[2,3-b]pyridin-1-yl-ethanone] | 8 | 
25 | COc1ncc(-c2ccccc2N2CCN(C(=O)Cn3ccc4cccnc43)CC2)cn1 [1-{4-[2-(2-Methoxy-pyrimidin-5-yl)-phenyl]-piperazin-1-yl}-2-pyrrolo[2,3-b]pyridin-1-yl-ethanone] | 6 | 
26 | COc1ncc(-c2ccccc2N2CCN(C(=O)Cn3ccc4ccncc43)CC2)cn1 [1-{4-[2-(2-Methoxy-pyrimidin-5-yl)-phenyl]-piperazin-1-yl}-2-pyrrolo[2,3-c]pyridin-1-yl-ethanone] | 9 | 
27 | CNc1ncc(-c2cc(C(F)(F)F)ccc2N2CCN(C(=O)Cn3ccc4cccnc43)CC2)cn1 [1-{4-[2-(2-Methylamino-pyrimidin-5-yl)-4-trifluoromethyl-phenyl]-piperazin-1-yl}-2-pyrrolo[2,3-b]pyridin-1-yl-ethanone] | 5 | 
28 | CNc1ncc(-c2ccccc2N2CCN(C(=O)Cn3ccc4cccnc43)CC2)cn1 [1-{4-[2-(2-Methylamino-pyrimidin-5-yl)-phenyl]-piperazin-1-yl}-2-pyrrolo[2,3-b]pyridin-1-yl-ethanone] | 7 | 
29 | CSc1ncc(-c2cc(C(F)(F)F)ccc2N2CCN(C(=O)Cn3ccc4cccnc43)CC2)cn1 [1-{4-[2-(2-Methylsulfanyl-pyrimidin-5-yl)-4-trifluoromethyl-phenyl]-piperazin-1-yl}-2-pyrrolo[2,3-b]pyridin-1-yl-ethanone] | 9 | 
30 | CSc1ncc(-c2ccccc2N2CCN(C(=O)Cn3ccc4cccnc43)CC2)cn1 [1-{4-[2-(2-Methylsulfanyl-pyrimidin-5-yl)-phenyl]-piperazin-1-yl}-2-pyrrolo[2,3-b]pyridin-1-yl-ethanone] | 4 | 
31 | O=C(Cn1ccc2cccnc21)N1CCN(c2ccccc2-c2ccnc(N3CCOCC3)c2)CC1 [1-{4-[2-(2-Morpholin-4-yl-pyridin-4-yl)-phenyl]-piperazin-1-yl}-2-pyrrolo[2,3-b]pyridin-1-yl-ethanone] | 16 | 
32 | O=C(Cn1ccc2cccnc21)N1CC=C(c2ccccc2-c2cnc(N3CCOCC3)nc2)CC1 [1-{4-[2-(2-Morpholin-4-yl-pyrimidin-5-yl)-phenyl]-3,6-dihydro-2H-pyridin-1-yl}-2-pyrrolo[2,3-b]pyridin-1-yl-ethanone] | 20 | 
33 | O=C(CNc1ccncc1)N1CCN(c2ccccc2-c2cnc(N3CCOCC3)nc2)CC1 [1-{4-[2-(2-Morpholin-4-yl-pyrimidin-5-yl)-phenyl]-piperazin-1-yl}-2-(pyridin-4-ylamino)-ethanone] | 27 | 
